Data published in US6521640B1, “Method for interviewing neuronal death using sulfasalazine” (Neurotech Co., Ltd., priority 2000, dated 2003).

What was measured:
[1] = tested on: cocultures of cortical neurons and glia; assay: Fe2+-induced free radical neuronal death (LDH); type: cell-based, mouse; conditions: 50 μM Fe2+; 30-300 μM sulfasalazine concurrent
Experimental: FIG. 6 is a graph plotting a dose-response effect of sulfasalazine against neuronal death following 24 hr-exposure to 50 μM Fe^2+. […] Neuronal death was assessed 24 hr later by measurement of LDH released into the bathing medium, means ± S.E.M. (n=4 12 culture wells per condition). Asterisk indicates significant difference from relevant control (Fe^2+ alone) at ρ<0.05, using ANOVA and Student-Neuman-Keuls' test.
(§1) Primary cortical cell cultrues from embryonic mice were prepared and used to examine neuroprotective action of compounds. Mouse cortical cell culture system has been extensively used to study mechanisms and pharmacological intervention of neuronal death in neurological diseases. In brief, mouse cerebral coritces were removed from brains of the 15 day—old—fetal mice, in accordance with a protocol approved by our institutional animal care committee. The neocortices were gently triturated and plated on 24 well plates (5 hemispheres/plate) precoated with 100 μg/ml poly-D-lysine and 4 μg/ml laminine. […]
(§2) Overall cell injury was assessed microscopically under phase-contrast optics or by measuring amount of lactate dehydrogenase (LDH) released into the bathing medium 24 hr after neurotoxic insults as previously described (Koh and Choi, J Neurosci Methods 20:83-90, 1987). […]

cortical cell cultures [2] = assay: Zn2+ entry into cortical cells (TSQ fluorescence); type: cell-based, mouse
Experimental: FIG. 10 is a graph plotting effects of sulfasalazine reducing Zn^2 entry into cortical cells. Sister cultures were exposed to 300 μM Zn^2+ for 30 min, alone or with inclusion of 30-300 μM sulfasalazine. Zn^2+ entry was assessed 30 min later by measuring fluorescence intensity of TSQ, a Zn^2+ chelating agent. (n=8 culture wells per condition). Asterisk indicates significant difference from relevant control (Zn^2 alone) at ρ<0.05, using ANOVA and Student-Neuman-Keuls' test.
as §1, with “committee.” for “committee. The neocortices were gently triturated and plated on 24 well plates (5 hemispheres/plate) precoated with 100 μg/ml poly-D-lysine and 4 μg/ml laminine.”
Entry and accumulation of Zn^2+ into neurons were analyzed using TSQ (N-(6-methoxy-8-quinolyl)-p-toluene sulfonamide), a membrane-permeable Zn^2+-chelating dye (Weiss J H, Hartley D M, Koh J Y, Choi D W, 1993, Neuron, 10:43-49). Cultures were incubated in HCSS containing 0.01% TSQ for 5 min, observed under fluorescence microscopy with a UV filter (excitation 365 nm, dichroic 400 nm, barrier 450 nm), and the intensity of TSQ was analyzed using a fluorescence plate reader.

cortical cell cultures [3] = assay: Neuronal death after oxygen and glucose deprivation (LDH); type: cell-based, mouse; conditions: 300 μM sulfasalazine
Experimental: FIG. 11 is a graph plotting neuroprotective effects of sulfasalazine against deprivation of oxygen and glucose. Cortical cell cultures (DIV 14) were deprived of oxygen and glucose (OGD) for 45, 60 or 90 min, alone (black bars) or with inclusion of 300 μM sulfasalazine (gray bars). Neuronal death was assessed 24 hr later by measurement of LDH released into the bathing medium, mean ± SEM (n=4 culture wells per condition). Asterisk indicates significant difference from relevant control (OGD alone) at ρ<0.05, using ANOVA and Student-Neuman-Keuls' test.
Primary cortical cell cultrues from embryonic mice were prepared and used to examine neuroprotective action of compounds. Mouse cortical cell culture system has been extensively used to study mechanisms and pharmacological intervention of neuronal death in neurological diseases. […]
Oxygen or glucose deprivation: cortical cell cultures (DIV 15-17) were transferred to an anacrobic chamber containing 5% CO2, 10% H2, and 85% N2 as described before (Gwag B J, Lobner D, Koh J Y, Wie M B, and Choi D W, 1995, Neuroscience, 68:615-619). […] Neuronal injury was quantified 24 hr later.
as §2

[4] = tested on: cocultures of cortical neurons and glia; assay: BSO-induced free radical neuronal death (LDH); type: cell-based, mouse; conditions: 10 mM BSO; 30-300 μM sulfasalazine concurrent
Experimental: FIG. 7 is a graph plotting a dose-response effect of sulfasalazine against neuronal death following 24 hr-exposure to 10 mM BSO. Cortical cell cultures (DIV 12-14) were exposed to 10 mM L-buthionine-(S,R)-sulfoximine (BSO), alone or with 30-300 μM sulfasalazine. Neuronal death was assessed 24 hr later by measurement of LDH released into the bathing medium, mean ± SEM (n=8 culture wells per condition). Asterisk indicates significant difference from relevant control (BSO alone) at ρ<0.05, using ANOVA and Student-Neuman-Keuls' test.
as §1, §2

[5] = man, 3-5 hrs after oral ingestion of a single 4 g dose; cited from earlier work
cortical cell cultures [6] = assay: Zn2+ neurotoxicity (LDH); type: cell-based, mouse; conditions: 300 μM Zn2+ for 30 min; 10-100 μM sulfasalazine concurrent
Experimental: FIG. 9 is a graph plotting a dose-response effect of sulfasalazine against neuronal death 24 hr following exposure to 300 μM Zn^2+ for 30 min. Cortical cell cultures were exposed to 30-500 μM Zn^2+ for 30 min, alone (filled circles) or with inclusion of 100 μM sulfasalazine (open circles). Neuronal death was assessed 24 hr later by measurement of LDH released into the bathing medium, mean ± SEM (n=8 culture wells per condition). Asterisk indicates significant difference from relevant control (Zn^2+ alone) at ρ<0.05, using ANOVA and Student-Neuman-Keuls' test.
as §1, with “committee.” for “committee. The neocortices were gently triturated and plated on 24 well plates (5 hemispheres/plate) precoated with 100 μg/ml poly-D-lysine and 4 μg/ml laminine.”
as §2

cortical cell cultures [7] = assay: NMDA-induced 45Ca2+ uptake; type: cell-based, mouse; conditions: for 45Ca2+ influx after NMDA: 300 μM NMDA, 10 min
Experimental: FIG. 5 is a graph plotting effects of sulfasalazine against NMDA-induced ^45Ca^2+ uptake. Cortical cell cultrues (DIV 12-14) were exposed to a sham wash (control) or 300 μM NMDA, alone or in the presence of 30-1000 μM sulfasalazine. Ca^2+ influx was analyzed 10 min later by measuring ^45Ca^2+ influx, mean ± S.E.M. (n=12 cultures per condition). Asterisk indicates significant difference from relevant control (NMDA alone), at ρ<0.05 using ANOVA and Student-Neuman-Keuls' test.
Primary cortical cell cultrues from embryonic mice were prepared and used to examine neuroprotective action of compounds. Mouse cortical cell culture system has been extensively used to study mechanisms and pharmacological intervention of neuronal death in neurological diseases. In brief, mouse cerebral coritces were removed from brains of the 15 day—old—fetal mice, in accordance with a protocol approved by our institutional animal care committee. The neocortices were gently triturated and plated on 24 well plates (5 hemispheres/plate) precoated with 100 μg/ml poly-D-lysine and 4 μg/ml laminine. Plating media consist of Eagles minimal essential media (MEM, Earles salts, supplied glutamine-free) supplemented with 5% horse serum, 5% fetal bovine serum, 2 mM glutamine, and 21 mM glucose. Cultures were maintained at 37° C. in a humidified 5% CO2 atmosphere. After 7 days in vitro (DIV 7), cultures were shifted into a growth medium identical to the plating medium but lacking fetal serum. At DIV 7-9, […] cytosine arabinofuranoside was included to halt overgrowth of glia. Mixed cultures of neurons and glia were then fed twice a week.
To analyze Ca^2+ uptake, cortical cell cultures (DIV 13-14) were added with 300 μM NMDA and 1.5 μCi ^45Ca^2+ for 10 min, washed thoroughly with HCSS, and lysed in 0.2% SDS. Levels of ^45Ca^2+ in the lysates were read in a Beckman Scintillation counter.

cortical cell cultures [8] = assay: Fe2+-induced production of reactive oxygen species (DCDHF fluorescence); type: cell-based, mouse
Experimental: FIG. 8 is a graph plotting effects of sulfasalazine against Fe^2+-induced production of reactive oxygen species. Cortical cell cultures (DIV 13-14) were exposed to a sham wash (control) or 50 μM Fe^2+, alone or with 100 μM sulfasalazine for the indicated points of time. Levels of ROS in neurons were analyzed by monitoring the fluorescent signal of oxidized DCDHF, mean ± S.E.M. (n=53−80 neurons randomly chosen under a phase-contrast optic). Asterisk indicates significant difference from the relevant control (Fe^2+ alone in each time point) at ρ<0.05 using ANOVA and Student-Neuman-Keuls' test.
Primary cortical cell cultrues from embryonic mice were prepared and used to examine neuroprotective action of compounds. […]
To analyze reactive oxygen species in cortical cells, cortical cultures were loaded with 10 μM 6-carboxy-2′,7′-dichlorodihydrofluorescein diacetate (DCDHF-DA) plus 2% Pluronic F-127 in HCSS solution containing (120 mM NaCl, 5 mM KCl, 1.6 mM MgCl2, 2.3 mM CaCl2, 15 mM Glucose, 20 mM HEPES, 10 mM NaOH) for 20 minutes at 37° C., washed three times with HCSS solution, and the fluorescence signal of DCF (Ex 1=488 nm, Em 1=510 nm), the oxidation product of DCDHF-DA, was analyzed on the stage of a Nikon Diaphot inverted microscope equipped with a 100W Xenon lamp and a Nikon 20X, 0.4 N.A. objective.

cortical neurons = assay: NMDA-induced accumulation of intracellular free Ca2+ (fluo-3); type: cell-based, mouse; conditions: 300 μM NMDA; 300 μM sulfasalazine
Experimental: FIG. 4 is a graph plotting effects of sulfasalazine against NMDA-induced accumulation of intracellular free Ca^2+. […] [Ca^2+], was analyzed in fluo-3-loaded neutrons immediately after treatment, mean ± S.E.M. (n÷55−94 randomly chosen neurons in 4-6 glass bottom dishes per condition), scaled to [Ca^2+], after the sham control (÷100%). Asterisk indicates significant difference from relevant control (NMDA alone), at ρ<0.05 using ANOVA and Student-Neuman-Keuls' test.
as §1
Levels of intracellular free Ca^2+ ([Ca^2+]i) were analyzed using a Ca^2+ sensitive indicator flou-3 under a fluorescence microphotometry (Minta A. Kao J P. Tsien R Y. 1989, J Bio Chem. 264:8171-8178). […] The fluroescence images were analyzed using a QuantiCell 700 system (Applied Imaging, England).

[9] = tested on: cocultures of mouse cortical neurons and glia; assay: NMDA-induced neuronal death (LDH efflux) in cortical cell cultures; type: cell-based; conditions: for NMDA neurotoxicity (neuronal death 24 hr later): 300 μM NMDA for 10 min
Experimental: FIG. 2 is a graph plotting a dose-response effect of sulfasalazine against neuronal death 24 hr following a brief exposure to 300 μM NMDA. Cocultures of mouse cortical neurons and glia (DIV 12-14) were exposed to 300 μM NMDA for 10 min, alone or with inclusion of 10-1000 μM sulfasalazine. Neuronal death was analyzed by measuring LDH efflux into the bathing medium 24 hr later, mean ± S.E.M. (n−8−16 cultrues per condition), scaled to the mean LDH value corresponding to the near-complete neuronal death induced by 24 hr exposure to 500 μM NMDA (=100%). Asterisk indicates significant difference from relevant control (NMDA alone), at ρ<0.05 using ANOVA and Student-Neuman-Keuls' test.
FIG. 3 is a graph plotting neuroprotective effects of sulfasalazine against dose-dependent neurotoxicity by NMDA. Cortical cell cultures were exposed to 30-1000 μM NMDA for 10 min, alone or in the presence of 300 or 1000 μM sulfasalazine. Neuronal death was analyzed by measuring LDH efflux into the bathing medium 24 hr later, mean ± S.E.M. (n=8−16 cultures per condition). Asterisk indicates significant difference from relevant control (NMDA alone), at ρ<0.05 using ANOVA and Student-Neuman-Keuls' test.
as §1, §2

O=C(O)c1cc(/N=N/c2ccc(S(=O)(=O)Nc3ccccn3)cc2)ccc1O [sulfasalazine]
neuronal death 24 hr following continuous exposure to Fe2+ [1]: dose-dependently reduced
Zn2+ entry (cortical cell cultures [2]; 300 μM Zn2+ for 30 min, 300 μM sulfasalazine): slightly but significantly reduced
doses preventing influx and accumulation of Zn2+ (cortical cell cultures [2]; summary statement): 30-1,000 μM
neuroprotective effects after prolonged deprivation of oxygen and glucose (cortical cell cultures [3]; OGD extended to 90 min): decreased
neuronal death following deprivation of oxygen and glucose (cortical cell cultures [3]; OGD for 45-60 min): markedly reduced
neuronal death 24 hr following continuous exposure to BSO [4]: dose-dependently reduced
serum concentrations [5]: approximately 500 μM
Zn2+ neurotoxicity (cortical cell cultures [6]): reduced Zn^2+ neurotoxicity in a dose-dependent manner
45Ca2+ influx after NMDA (cortical cell cultures [7]; 300 μM sulfasalazine): partially reduced
45Ca2+ influx after NMDA (cortical cell cultures [7]; 1000 μM sulfasalazine): completely blocked
doses preventing influx and accumulation of Ca2+ (cortical cell cultures [7]; summary statement): 30-1,000 μM
production of ROS following exposure to Fe2+ (cortical cell cultures [8]; 50 μM Fe2+, 100 μM sulfasalazine): reduced production of ROS
doses scavenging reactive oxygen species (cortical cell cultures [8]; summary statement): 3 to 100 µM
NMDA-induced accumulation of [Ca2+]i (cortical neurons): markedly reduced
NMDA neurotoxicity (neuronal death 24 hr later) ([9]; 1 mM sulfasalazine): completely blocked
NMDA neurotoxicity (neuronal death 24 hr later) ([9]; 100-300 μM sulfasalazine concurrent): partially reduced
neuroprotective effects with increasing doses of NMDA ([9]; NMDA up to 1 mM for 10 min, 300 or 1000 μM sulfasalazine): did not interfere with the neuroprotective effects
